Measured values from patent publication US10751387B2, “Pharmacological therapy for neuronopathic Gaucher disease” (priority 2016, dated 2020).
“And” between values parts separate entries of the source, which are not always exact repeats. Equal values may be shown once.

Key:
ryanodine receptor = settings: vendor listing (Sigma); cited from earlier work
CBE-N2a cells [1] = assay: Cytosolic calcium level measurement with Fura-2 after caffeine; type: cell-based, mouse; settings: CBE-N2a cells vs untreated; dantrolene 12.5 μM, ryanodine 10 μM, G6 0.8 μM, 5 days; caffeine 10 mM
Protocol: (§4) N2a cells were maintained in DMEM/10% FBS (Gibco) medium. Neuronal differentiation of N2a was carried out in the differentiation medium containing 0.5% FBS, 10 μM retinoic acid, 50 ng/ml GDNF (Alomore lab) and 1 mM dbcAMP in DMEM for 3 days (37). The differentiated N2a cells were treated with 2 mM CBE for 5 days in the differentiation medium. […] The medium with the reagents was changed every 2 days. […] Cell viability after each drug treatment was measured by CellTiter-Fluoirm Cell Viability assay (Promega). […] The cells were from same passage and treated at the same time for all the experiments.
Intracellular calcium levels were determined using the Fura-2 QBT Calcium Kit (Molecular Devices, Sunnyvale, Calif.) on 96 well plates by M5 SpectraMax plate reader (Molecular Devices). N2a cells were seeded in each well (20,000/well) with differentiation medium (0.5% FBS, DMEM, 10 AM retinoic acid, 1 mM dbcAMP) for 72 h (37). […] The cell medium was replaced every two days. The treated cells were incubated with Fura-2 QBT dye at 37 C for 1 h for Fura-2 QBT uptake (Fura2 QBT® calcium kit protocol, Molecular Devices). Caffeine (10 mM) was used as an ER calcium efflux stimulant in the assay (38,39). The plate reader setting was 340/380 nm (excitation) and 510 nm (emission). Baseline calcium levels were measured prior to caffeine addition (−30 s). Cytosolic calcium levels were recorded every 30 s for duration of 300 s after addition of caffeine. Relative cytosolic calcium levels were determined with the values at 300 s endpoint minus Os baseline. Relative cytosolic calcium level [Fura-2 AF/F (340/380510 nm] for control or treated cells was calculated by Fura-2 fluorescence unit (FU) measured at 340 nm/510 nm (AF=RFU/340 at 300 s end point minus baseline RFU/340 at 0 s) divided by FU at 380 nm/510 nm (F=RFU/380 at 300 s-baseline RFU/380 at 0 s) (Fura2 QBT® calcium kit protocol, Molecular Devices) and normalized to protein level in cells. Data were collected and analysed by SoftMax Pro software (Molecular Devices) and graphical charts were generated by Graphpad Prism 6.0.

4L;C* mice [2] = assay: Gait analysis in nGD mouse model
Protocol: Progression of the neurobehavioural phenotype was assessed by gait analysis to determine sensorimotor function (77,78). Mice were trained to walk through a narrow alley leading into their home-cage. Once trained, paper was placed along the alley floor and the hind paws of each mouse were brushed with nontoxic paint. The mice were then placed at the beginning of the alley. As they walked into their home-cage they left their paw prints on the paper underneath. Stride length and width were determined by measuring the distance between hind paw prints. The 4L;C* and control mice, untreated and non-4L;C* littermates were tested for gait at 30 and 40 days of age.

CAMK IV = assay: Immunoblot of CAMK IV in 4L;C* cerebrum; type: in vivo, mouse; design: reference not given here; settings: untreated 61% of WT level
Protocol: (§1) Half of mice brain (sagittal cut) tissues were homogenized in M-PER Mammalian Protein Extraction Reagent and subjected to electrophoresis. Ryr proteins (−500 kD) in tissues lysate were separated on 3-8% NuPAGE gel running at 90V for 12 h at 4° C. in acetate buffer. 13-actin was resolved on 4-12% Bis-Tris gel. The proteins were transferred to PVDF membrane using iBlot 2 gel transfer device following manufacturer's instructions. The blots were incubated with anti-mouse Ryr3 monoclonal antibody (1/250) or anti-13-actin (1:5000) overnight at 4° C. in 1.5% BSA/1.5% milk/PBS buffer. LC3, CAMK IV and calmodulin were separated on 16% Tris-glycine gel (Novex) and detected by anti-LC3 (1:1000), anti-CAMK IV (1:500) or anti-CAM (1:1000), respectively. The signals were detected with either ECL detection reagent or AP Conjugate Substrate Kit according to manufacturer's instructions. Band intensities on immunoblots were quantitated by Image J (NIH, Baltimore, Va.).

4L;C* mice [3] = assay: Survival / life span in nGD mouse model; settings: IP 10 mg/kg three days per week
Protocol: The data are presented as mean±SEM and were analysed by Student's t-test or one-way ANOVA with post-hoc Tukey test using GraphPad Prism 6. The level of significance was set at P<0.05. Survival analysis was performed using Kaplan-Meier and the Mantel-Cox tests.

CBE-N2a cells [4] = assay: Substrate (GC, GS) levels in nGD cell model (CBE-N2a) by ESI-LC-MS/MS; type: cell-based, mouse; settings: 5 days
Protocol: (§2) N2a cells were maintained in DMEM/10% FBS (Gibco) medium. Neuronal differentiation of N2a was carried out in the differentiation medium containing 0.5% FBS, 10 μM retinoic acid, 50 ng/ml GDNF (Alomore lab) and 1 mM dbcAMP in DMEM for 3 days (37). The differentiated N2a cells were treated with 2 mM CBE for 5 days in the differentiation medium. […]. The medium with the reagents was changed every 2 days. The differentiation status of the neuronal cells was confirmed by anti-Map2 (mature neuron) or anti-Nestin (undifferentiated neuronal cells) antibody staining. Cell viability after each drug treatment was measured by CellTiter-Fluoirm Cell Viability assay (Promega). […]. The cells were from same passage and treated at the same time for all the experiments.
(§3) Glycosphingolipids in mouse brains and N2a cells were extracted with chloroform and methanol as described (83). GC and GS content in the extracts was analysed by ESI-LC-MS/MS using a Waters Quattro Micro API triple quadrupole mass spectrometer (Milford, Mass.) interfaced with Acquity UPLC system as described (35). The concentration of GC and GS in the brain was normalized to mg tissue weight and in the cells was normalized by mg protein in the cell lysate.

Ryr1 and Ryr3 = settings: reference 58; cited from earlier work
Ryr3 [5] = assay: Immunoblot of Ryr3 in 4L;C* cerebrum; type: in vivo, mouse; settings: 44 days of age, untreated 9%
Protocol: as §1

[6] = Body and organ weights of treated mice; type: in vivo, mouse; settings: IP 10 mg/kg three days per week
Ryr3 [7] = assay: Immunoblot of Ryr3 in CBE-N2a cells; type: cell-based, mouse; settings: dantrolene 12.5 μM, untreated 47%
Protocol: as §2
as §1, with “13-actin was resolved on 4-12% Bis-Tris gel. The proteins were transferred to PVDF membrane using iBlot 2 gel transfer device following manufacturer's instructions. The blots were incubated with anti-mouse Ryr3 monoclonal antibody (1/250) or anti-13-actin (1:5000) overnight at 4° C. in 1.5% BSA/1.5% milk/PBS buffer.” left out

CBE-N2a cells [8] = assay: Seahorse mitochondrial function assay (OCR) in cells; type: cell-based, mouse; settings: CBE-N2a cells vs untreated CBE-N2a; dantrolene 12.5 μM, G6 0.8 μM
Protocol: as §4
Cell numbers were determined using a haemocytometer. Prior to mitochondrial function assay on XF96 Extracellular Flux Analyzers (Seahorse Biosciences), the cells in the wells of XF96 assay plates were washed by gently adding warm assay medium to the side of each well. […] The respiration parameters were calculated by subtracting the average respiration rates before and after the addition of the electron transport inhibitors: oligomycin, FCCP and antimycin A. The parameters include basal respiration (baseline respiration minus antimycin A post injection respiration), ATP production (baseline respiration minus oligomycin post injection respiration), and maximal respiratory (FCCP stimulated respiration minus antimycin A post injection respiration). […]

N2a cells = assay: Substrate (GC, GS) levels in N2a cells by ESI-LC-MS/MS; type: cell-based, mouse; settings: G6 0.8 μM, 5 days
Protocol: as §2, §3

Row | Molecule | Ryanodine receptor antagonist concentration (ryanodine receptor) [µM] | Cytosolic calcium level above baseline after caffeine [Fura-2 ΔF/F] (CBE-N2a cells [1]) | Base stride width (4L;C* mice [2]; IP 10 mg/kg three days per week from postnatal day 5, 30 and 40 days of age, vs untreated) | Stride length increase compared to untreated 4L;C* mice (4L;C* mice [2]; IP 10 mg/kg three days per week, 40 days of age) [%] | CAMK IV expression increase (CAMK IV) [%] | Life span / survival prolonged compared to untreated 4L;C* mice (4L;C* mice [3]; 10 mg/kg) | Median survival days (4L;C* mice [3]; untreated 44 days) [days] | GC and GS levels (CBE-N2a cells [4]; CBE-N2a cells, dantrolene 12.5 μM, G6 0.8 μM) | Ryr specificity (Ryr1 and Ryr3) | Ryr3 protein level, % of WT (Ryr3 [5]) [%] | Body or organ weights [6] | Ryr3 protein level, % of WT level (Ryr3 [7]) [%] | Oxygen Consumption Rate (OCR: ATP production, basal respiration, maximal respiration) (CBE-N2a cells [8]) | GS level (CBE-N2a cells [4]; CBE-N2a cells vs untreated) | GC reduction to % of untreated levels (CBE-N2a cells [4]; CBE-N2a cells, G6 0.8 μM) [%] | GC reduction to % of untreated levels (N2a cells) [%]
1 | Ryanodine | > 10 | significant reduction |  |  |  |  |  |  |  |  |  |  |  |  |  | 
2 | O=C1CN(/N=C/c2ccc(-c3ccc([N+](=O)[O-])cc3)o2)C(O)=N1 [Dantrolene] |  | significantly reduced | significantly reduced | 30 | 28 | 12.3% and 12.7% | 50 | did not affect | specific to Ryr1 and Ryr3 | 77 | did not affect | 76 |  |  |  | 
3 | CC(C)(NC(=O)OC1CN2CCC1CC2)c1cccc(-c2ccc(F)cc2)c1 (stereo not drawn) [G6] |  | significantly lower |  |  |  |  |  |  |  |  |  |  | significant increases | significantly decreased | 26 | 7
